# Results reported in patent US7456153B2, “Compounds and methods for modulating functions of classical cadherins” (Adherex Technologies Inc., priority 2002, dated 2008).
# Experiments:
# [1] = molecular target: Fc-E-cadherin chimeric protein; experiment: BIAcore binding of peptide modulating agents to captured Fc-E-cadherin; settings: absence of calcium
# Procedure: The binding of representative peptide modulating agents to Fc-E-cadherin chimeric protein in either the presence (3 mM CaCl2) or absence of calcium was assessed using a BIAcore X™ Biosensor (Pharmacia Ltd., Sweden). Protein A was immobilized on the flow cells of a CM 5 sensor chip using a standard amine coupling method. The surfaces were activated with a 7 min injection of NHS/EDC, followed by a 7 min injection of protein A in 10 mM acetate pH 5.0 at a concentration of 50 ug/mL and blocked with a 7 min injection of […] ethanolamine, pH 8.2. […] Next, Fc-E-cadherin was injected over the protein A surface to be captured on the sensor chip.
# To test compound binding to these surfaces, candidate modulating agents were injected in a three-fold dilution series over the Fc-E-cadherin-coated surfaces using six concentrations and each concentration was repeated twice.
# [2] = tested on: SKOV3 human ovarian cancer cells; experiment: Disruption of confluent SKOV3 monolayers (microscopic examination); format: cell-based; settings: 1 mg/ml of culture medium, 24 hours
# Procedure: We investigated the effects of the linear peptide ADH254 (H-DWVIPP-NH2; classical cadherin derived peptide) on confluent cultures of SKOV3 cells. SKOV3 human ovarian cancer cells express N-cadherin. The cells were cultured in minimum essential medium (MEM) supplemented with 10% fetal calf serum, non-essential amino acids, fungizone, penicillin-streptomycin, and gentamicin in a humidified atmosphere (5% CO2) at 37° C. All culture reagents were purchased from GIBCO (Burlington, ON). ADH254 (1 mg/ml of culture medium) was added to confluent cultures of SKOV3 cells. After 24 hours of treatment, the cells were fixed with 4% paraformaldehyde, followed by 3 washes with phosphate buffered saline, and then stained with hematoxylin. Control cultures were grown in the absence of peptide.
# The peptide caused the SKOV3 cells to detach from one another and adopt an elongated, fibroblast-like morphology. These observations indicate that Trp containing peptides can disrupt cell adhesion.
Substance,KD Fc-ECAD no Ca++ [1],disruption of confluent SKOV3 monolayers [2]
AWVIPP [H-AWVIPP-NH2],no binding,
DWVAPP [H-DWVAPP-NH2],no binding,
DWVIAP [H-DWVIAP-NH2],no binding,
DWVIPA [H-DWVIPA-NH2],no binding,
DWVIPP [H-DWVIPP-NH2],no binding,caused disruption of the confluent SKOV3 monolayers
PWVIPP [H-PWVIPP-NH2],no binding,
